One experiment has as its system Dd2-B2 parasites. As to the kind of experiment: P. falciparum proliferation assay (72 h, flow cytometry, SYBR Green I/MitoTracker). The format is cell-based. The note with it: Plasmodium falciparum, DD2, read-out: IC50 value. The method, then: (§1) Two types of parasite proliferation assays were employed in this study, with both yielding highly consistent results. For the NF54-based lines and Dd2-B2-PfATP4^G358S and its parent, assays were initiated with cultures containing predominantly ring-stage parasites with a parasitaemia of 0.3% and a haematocrit of 1%. All assays using NF54 were performed in culture media containing 10% O + human serum. The duration of the assays was 72 h and the concentration of DMSO was <0.5% (v/v). Serial dilutions of the test compounds were performed using a Tecan D300e digital dispenser, with parasite cultures added manually. Parasite survival was assessed by flow cytometry on an Intellicyt iQue3 (Essen Bioscience), with 1× SYBR Green I (Invitrogen) and 200 nM MitoTracker Deep Red FM (Invitrogen) used to stain the nucleus and the mitochondria in live parasites, respectively. The gating strategy used to quantify parasite survival, performed using FlowJo version 10 (FlowJo LLC.), is illustrated in Supplementary Fig. 9. IC50 and IC90 values were calculated by linear interpolation of the dose-response data.
(In general: In flow cytometry, cells or beads pass a laser one at a time.)

For experiment [1], the system named is Dd2-B2-PfATP4^G358S parasites. Described as above. The experiment is classed as cell-based. The following applies: Plasmodium falciparum; Dd2-B2-PfATP4G358S; mean ± SEM. The method, then:
as §1

The target of experiment [2] is T1, TgATP4^WT (membranes from T. gondii tachyzoites) (Toxoplasma gondii, UniProt B9QMJ0).
T1 sequence (B9QMJ0 1-1338): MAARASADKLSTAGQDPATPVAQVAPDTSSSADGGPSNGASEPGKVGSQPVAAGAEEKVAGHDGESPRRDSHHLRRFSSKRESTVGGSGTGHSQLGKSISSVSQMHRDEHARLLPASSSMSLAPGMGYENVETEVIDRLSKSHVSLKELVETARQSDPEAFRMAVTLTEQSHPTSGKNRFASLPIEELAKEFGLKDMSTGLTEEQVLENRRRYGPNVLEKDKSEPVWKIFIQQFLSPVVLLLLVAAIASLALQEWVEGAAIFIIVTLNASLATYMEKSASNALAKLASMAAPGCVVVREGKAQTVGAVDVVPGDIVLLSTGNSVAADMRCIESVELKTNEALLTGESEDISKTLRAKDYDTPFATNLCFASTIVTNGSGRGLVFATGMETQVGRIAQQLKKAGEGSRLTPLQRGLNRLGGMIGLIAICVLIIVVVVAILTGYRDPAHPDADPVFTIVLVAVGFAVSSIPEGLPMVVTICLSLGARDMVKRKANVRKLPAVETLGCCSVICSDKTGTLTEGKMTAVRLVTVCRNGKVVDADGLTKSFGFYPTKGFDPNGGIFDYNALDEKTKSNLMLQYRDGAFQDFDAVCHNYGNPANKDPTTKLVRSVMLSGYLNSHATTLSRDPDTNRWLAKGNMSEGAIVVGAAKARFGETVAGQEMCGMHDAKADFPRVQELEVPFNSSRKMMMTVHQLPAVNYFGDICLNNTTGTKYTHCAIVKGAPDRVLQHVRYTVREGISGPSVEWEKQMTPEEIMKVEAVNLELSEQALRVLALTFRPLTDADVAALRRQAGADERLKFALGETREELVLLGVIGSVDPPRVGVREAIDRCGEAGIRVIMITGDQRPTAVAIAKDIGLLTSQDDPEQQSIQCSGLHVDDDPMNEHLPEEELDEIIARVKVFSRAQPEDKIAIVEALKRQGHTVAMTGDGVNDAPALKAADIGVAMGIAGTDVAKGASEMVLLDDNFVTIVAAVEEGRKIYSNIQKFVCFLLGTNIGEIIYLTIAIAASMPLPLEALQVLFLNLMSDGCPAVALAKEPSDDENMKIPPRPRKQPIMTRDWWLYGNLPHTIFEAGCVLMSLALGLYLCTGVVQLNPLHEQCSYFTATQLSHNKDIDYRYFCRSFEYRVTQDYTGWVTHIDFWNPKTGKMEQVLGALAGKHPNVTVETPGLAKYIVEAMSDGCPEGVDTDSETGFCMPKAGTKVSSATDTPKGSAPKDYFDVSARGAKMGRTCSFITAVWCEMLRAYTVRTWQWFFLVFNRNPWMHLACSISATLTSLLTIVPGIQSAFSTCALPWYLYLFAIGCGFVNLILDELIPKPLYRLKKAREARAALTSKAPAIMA
As to the kind of experiment: Membrane ATPase assay, ATP4-associated (Na+-dependent) ATPase activity. Details: IC50 for inhibition of ATP4-associated ATPase activity, MEAN: unit: nM. The experiment is classed as biochemical. Here is the method:
Membranes from isolated P. falciparum or extracellular T. gondii parasites were prepared by lysing parasites in ice-cold deionized water containing a 1:500 dilution of Protease Inhibitor Cocktail Set III (Merck Millipore), then washing the membrane preparation three times in ice-cold deionized water (with protease inhibitors present for the first two washes)[15]. Protein concentrations in the membrane preparations were measured using a Bradford assay. The PiColorLock Gold Phosphate Detection System (Innova Biosciences) was used to measure the production of Pi from hydrolysis of ATP[15]. Membrane preparations were diluted in either a high Na^+ solution (yielding final conditions in the reactions of 150 mM NaCl, 20 mM KCl, 2 mM MgCl2, 50 mM Tris, pH 7.2) or a Na^+-free solution (yielding final conditions of 150 mM choline chloride, 20 mM KCl, 2 mM MgCl2, 50 mM Tris, pH 7.2) to achieve a total protein concentration of 50 μg/mL. […] The reactions were performed at 37 °C, and were initiated by the addition of 1 mM ATP (Na2ATP۰3H2O; MP Biomedicals) and terminated 10 min later by adding 100 μL of reaction mixture (in duplicate) to 25 μL “Gold mix” in a 96-well plate. “Stabiliser” was added 3 min later, and the plates incubated at room temperature in the dark for 60 min before measuring absorbance at 635 nm. Background values (averaged from wells containing all components, but to which ATP was not added until after the membrane was exposed to Gold mix) were subtracted from the data. For each treatment, the ATPase activity associated with the (Na^+-dependent) PfATP4 and TgATP4 proteins was calculated by subtracting data obtained in the low Na^+ condition (containing only the 2 mM Na^+ introduced on addition of 1 mM Na2ATP) from that obtained in the high Na^+ condition.

One may read the IC50 as the concentration needed to halve the response being measured.

Several values for one entry are separate records, joined by “and”; a condition that tells them apart may be missing. Identical values can stand only once. Like-named read-outs stand apart in the source and are kept apart here.

Consider `C[C@H]1Cc2c([nH]c3cc(Cl)c(F)cc23)[C@@]2(N1)C(=O)Nc1ccc(Cl)cc12` [Cipargamin], for which the 50% inhibitory concentration (IC50) in the experiment on Dd2-B2 parasites was 2.17 ± 0.24 nM; in experiment [1], 1640 ± 80 nM. Moreover, the “IC50 for inhibition of ATP4-associated ATPase activity, MEAN” value in experiment [2] (WT T. gondii membranes, MEAN, source data of Table 1 (nM there)) was found to be 8.39. The remaining activity at 60 pM in experiment [2] (WT T. gondii, Cipargamin 0.06 nM, MEAN, read-out: TgATP4-associated ATPase activity (% of control)) worked out at 98.4%; in experiment [2] (WT T. gondii, Cipargamin 0.06 nM, single experiments, read-out: TgATP4-associated ATPase activity (% of control)), 98.9%. In addition, the “TgATP4-associated ATPase activity (% of control)” value was 98.0 % of control in experiment [2] (WT T. gondii, Cipargamin 0.06 nM, single experiments); 100.0 % of control and 99.7 % of control and 103.4 % of control in experiment [2] (WT T. gondii, Cipargamin 0.12 nM, single experiments); 81.4 % of control and 81.6 % of control and 107.2 % of control and 96.9 % of control in experiment [2] (WT T. gondii, Cipargamin 0.24 nM, single experiments). For the same molecule, the remaining activity at 0.00012 µM in experiment [2] (WT T. gondii, Cipargamin 0.12 nM, MEAN, read-out: TgATP4-associated ATPase activity (% of control)) was 101%; in experiment [2] (WT T. gondii, Cipargamin 0.12 nM, single experiments, read-out: TgATP4-associated ATPase activity (% of control)) it was 100%. Also, the remaining activity at 0.00024 µM in experiment [2] (WT T. gondii, Cipargamin 0.24 nM, MEAN, read-out: TgATP4-associated ATPase activity (% of control)) was 91.8%. The remaining activity at 0.00049 µM in experiment [2] (WT T. gondii, Cipargamin 0.49 nM, MEAN, read-out: TgATP4-associated ATPase activity (% of control)) stood at 76.3%. The remaining activity at 0.00098 µM in experiment [2] (WT T. gondii, Cipargamin 0.98 nM, MEAN, read-out: TgATP4-associated ATPase activity (% of control)) worked out at 66.1%. Also, the remaining activity at 0.00195 µM in experiment [2] (WT T. gondii, Cipargamin 1.95 nM, MEAN, read-out: TgATP4-associated ATPase activity (% of control)) turned out to be 47.3%. Besides, the remaining activity at 0.0039 µM in experiment [2] (WT T. gondii, [cipargamin] 3.9 nM, MEAN, read-out: TgATP4-associated ATPase activity (% of control)) was found to be 34.5%. Further, the remaining activity at 0.0078 µM in experiment [2] (WT T. gondii, [cipargamin] 7.8 nM, MEAN, read-out: TgATP4-associated ATPase activity (% of control)) is 38.1%. The remaining activity at 0.0156 µM in experiment [2] (WT T. gondii, [cipargamin] 15.6 nM, MEAN, read-out: TgATP4-associated ATPase activity (% of control)) is 21.9%. Also, in experiment [2] (WT T. gondii, [cipargamin] 31.3 nM, MEAN, read-out: TgATP4-associated ATPase activity (% of control)), the remaining activity at 0.0313 µM is 13.1%. The remaining activity at 0.0625 µM in experiment [2] (WT T. gondii, [cipargamin] 62.5 nM, MEAN, read-out: TgATP4-associated ATPase activity (% of control)) was determined as 6.8%. Besides, the “IC50 for ATP4-associated ATPase activity” value in experiment [2] (membranes from WT T. gondii (TgATP4WT), mean ± SEM) is 8.4 ± 5.8 (4) nM.

(Values after article PMC9525273 (Nature Communications, 2022).)
